# Results: patent US8865672B2, “Prevention of tissue ischemia and related methods” (The United States of America, as represented by the …, priority 2006, dated 2014)
# Assays:
# human platelets = assay: Thrombin-induced human platelet aggregation; assay type: cell-based; conditions: for NO delay of thrombin-induced platelet aggregation: DEA/NO 10 μM
# Summary of the method: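 Washed human platelets in Tyrode's buffer pH 7.4 (2×10^5/μl) are stirred at 1200 rpm and 37 °C, and optical aggregation is followed for 5 min; under static conditions, A400 is tracked for 5 min instead. TSP1 agents or 1 μM peptide C6d are pre-incubated for 15 min before thrombin ± DEA/NO (10 μM).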
# [1] = test system: myosin light chain-2 (MLC) in HAVSMC; assay: Myosin light chain phosphorylation in VSMC; assay type: cell-based, human; conditions: S1P 100 nM, DEA/NO 10 μM, TSP1 2.2 nM
# Protocol: VSMC were plated at 90% confluence and grown in smooth muscle growth media containing 2% FBS overnight. To stimulate MLC phosphorylation, sphingosine-1-phosphate (SIP; Biomol International, Plymouth, Pa.) was added at a final concentration of 100 nM. The nitric oxide donor DEA/NO was added at a final concentration of 10 μM. For TSP1 pretreatment, cells were incubated with 2.2 nM TSP1 before addition of SIP or DEA/NO. Cells were subsequently washed twice with PBS and lysed immediately in 1×SDS sample buffer containing 10 μg/mL leupeptin, 10 μg/mL aprotinin, 1 mM Na3VO4, and 40 mM NaF. Lysates prepared in the SDS sample buffer described above were electrophoresed in 4-12% BisTris NuPAGE gels and transferred to PVDF membranes prior to immunoblotting with rabbit polyclonal antibodies against myosin light chain-2 (MLC) and phospho-MLC2 (T18/S19, Cell Signaling Technology, Danvers, Mass.).
substance,measurement,setting,value
TSP1: thrombospondin-1 prepared from human platelets,platelet aggregation at high shear in the presence of NO,human platelets; GGTI-298 preincubation,maintained its ability to accelerate platelet aggregation
same,"lowest concentration tested, sufficient to accelerate platelet aggregation in the presence of NO",human platelets; high shear,0.022 nM
same,NO delay of thrombin-induced platelet aggregation,"human platelets; high shear, thrombin 0.2 U/ml",reversed in a dose-dependent manner
same,NO delay of thrombin-induced platelet aggregation,human platelets; static / low shear conditions,completely abrogated
same,MLC dephosphorylation induced by NO,[1],partially restored MLC phosphorylation
